Source: patent US11396505B2, “Inhibitors of CaMKK2 and uses of same” (New York University, priority 2019, dated 2022)
Blank lines part the entries; values can stand above or below the compound they belong to.

Key:
CaMKK2 = CaMKK2 (Homo sapiens, UniProt Q96RR4); test: CaMKK1/2 biochemical assay, 32P radiometric kinase assay (CaMKK2); conditions: for inhibition at 0.2 µM: 0.2 μM compound, read-out: CaMKK2 % inhibition @ concentrations shown, 0.2 μM; for inhibition at 0.5 µM: 0.5 μM compound, read-out: CaMKK2 % inhibition @ concentrations shown, 0.5 μM; for inhibition at 10 µM: 10 μM compound, read-out: CaMKK2 % inhibition @ concentrations shown, 10 μM
Protocol: (§1) The following is an example of a CaMKK1/2-biochemical assay. Compounds were tested for CaMKK1/2 inhibition using a ^32P radiometric kinase assay as follows: A freshly prepared kinase reaction buffer (20 mM Hepes (pH 7.5), 10 mM MgCl2, 1 mM EGTA, 0.02% Brij35, 0.02 mg/ml BSA, 0.1 mM Na3VO4, 2 mM DTT, 1% DMSO) was treated with Myelin Basic Protein (final concentration=20 μM), CaCl2) (final concentration=1.5 mM), Calmodulin (final concentration=0.96 μM) and either CaMKK2 (final reaction concentration=120 nM) or CaMKK1 (final reaction concentration=150 nM) and gently mixed. Compounds were added as aliquots from 10 mM DMSO stock solutions such that the final compound concentration in the assay was either 10 μM, 0.5 μM or 0.2 μM. This mixture was allowed to incubate for 20 minutes at room temperature. ^32P-ATP (specific activity 10 μCi/μL) was added and the mixture was allowed to incubate for 2 hours at room temperature. The reaction mixture was spotted onto P81 ion exchange paper. The kinase activity was detected by the filter binding method.

CaMKK1 = CaMKK1 (Homo sapiens, UniProt Q8N5S9); test: CaMKK1/2 biochemical assay, 32P radiometric kinase assay (CaMKK1)
Protocol: as §1

SMILES: O=C(O)c1n[nH]c2ccc(N3CCOC3=O)cc12 [CL-628]
Biochemical Data CaMKK2, inh @ 0.5 μM (CaMKK2): 22% inh @ 0.5 μM
Biochemical Data CaMKK1, inh @ 0.5 μM (CaMKK1): <5% inh @ 0.5 μM

SMILES: O=S1(=O)CCCN1c1ccc2[nH]nc(-c3cc4ccccc4[nH]3)c2c1 [Example 32, 2-(3-(1H-indol-2-yl)-1H-indazol-5-yl)isothiazolidine 1,1-dioxide]
inhibition at 0.2 µM (CaMKK2): 84%

SMILES: COC(=O)[C@@H]1CCC(=O)N1c1ccc2[nH]nc(-c3cc4ccccc4[nH]3)c2c1 [Example 43, methyl (S)-1-(3-(1H-indol-2-yl)-1H-indazol-5-yl)-5-oxopyrrolidine-2-carboxylate]
inhibition at 0.2 µM (CaMKK2): 38%

SMILES: O=C1OC[C@@H](CO)N1c1ccc2[nH]nc(-c3cc4ccccc4[nH]3)c2c1 [Example 36, (R)-3-(3-(1H-indol-2-yl)-1H-indazol-5-yl)-4-(hydroxymethyl)oxazolidin-2-one]
inhibition at 0.2 µM (CaMKK2): 57%

SMILES: O=C1OCCN1c1ccc2[nH]nc(-c3cc4cccc(Cl)c4[nH]3)c2c1 [Example 14, 3-(3-(7-chloro-1H-indol-2-yl)-1H-indazol-5-yl)oxazolidin-2-one]
inhibition at 0.2 µM (CaMKK2): 71%

SMILES: C[C@@H]1COC(=O)N1c1ccc2[nH]nc(-c3cc4ccccc4[nH]3)c2c1 [Example 34, (R)-3-(3-(1H-indol-2-yl)-1H-indazol-5-yl)-4-methyloxazolidin-2-one]
inhibition at 0.2 µM (CaMKK2): 73%

SMILES: O=C1OCCN1c1ccc2[nH]nc(-n3ccnc3)c2c1 [Example 5, 3-(3-(1H-imidazol-1-yl)-1H-indazol-5-yl)oxazolidin-2-one]
inhibition at 10 µM (CaMKK2): 29%

SMILES: O=C1OCCN1c1ccc2[nH]nc(-c3ccc4ccccc4c3)c2c1 [Example 25, 3-(3-(naphthalen-2-yl)-1H-indazol-5-yl)oxazolidin-2-one]
inhibition at 0.2 µM (CaMKK2): 67%

SMILES: O=C1OCCN1c1ccc2[nH]nc(-c3ccc4cc[nH]c4c3)c2c1 [CL-669]
Biochemical Data CaMKK2, inh @ 0.2 μM (CaMKK2): 55% inh @ 0.2 μM
Biochemical Data CaMKK1, inh @ 0.2 μM (CaMKK1): <5% inh @ 0.2 μM

SMILES: C[C@H]1COC(=O)N1c1ccc2[nH]nc(-c3cc4ccccc4[nH]3)c2c1 [Example 33, (S)-3-(3-(1H-indol-2-yl)-1H-indazol-5-yl)-4-methyloxazolidin-2-one]
inhibition at 0.2 µM (CaMKK2): 90%

SMILES: O=C1OCCN1c1ccc2[nH]nc(-c3ccc4cc[nH]c4c3)c2c1 [Example 28, 3-(3-(1H-indol-6-yl)-1H-indazol-5-yl)oxazolidin-2-one]
inhibition at 0.2 µM (CaMKK2): 44%

SMILES: O=C1OCCN1c1ccc2[nH]nc(-c3cccnc3)c2c1 [Example 7, 3-(3-(pyridin-3-yl)-1H-indazol-5-yl)oxazolidin-2-one]
Biochemical Data CaMKK2, inh @ 0.5 μM (CaMKK2): 29% inh @ 0.5 μM
inhibition at 0.5 µM (CaMKK2): 29%
Biochemical Data CaMKK1, inh @ 0.5 μM (CaMKK1): <5% inh @ 0.5 μM

SMILES: O=C1OCCN1c1ccc2[nH]nc(/C=C/c3ccccc3)c2c1 [Example 9, (E)-3-(3-styryl-1H-indazol-5-yl)oxazolidin-2-one]
inhibition at 0.5 µM (CaMKK2): 89%

SMILES: COc1ccc2cc(-c3n[nH]c4ccc(N5CCOC5=O)cc34)[nH]c2c1 [Example 19, 3-(3-(6-methoxy-1H-indol-2-yl)-1H-indazol-5-yl)oxazolidin-2-one]
inhibition at 0.2 µM (CaMKK2): 87%

SMILES: COc1ccc2[nH]c(-c3n[nH]c4ccc(N5CCOC5=O)cc34)cc2c1 [Example 20, 3-(3-(5-methoxy-1H-indol-2-yl)-1H-indazol-5-yl)oxazolidin-2-one]
inhibition at 0.2 µM (CaMKK2): 84%

SMILES: O=C1OCCN1c1ccc2[nH]nc(-c3cccc(Cl)c3)c2c1 [Example 23, 3-(3-(3-chlorophenyl)-1H-indazol-5-yl)oxazolidin-2-one]
Biochemical Data CaMKK2, inh @ 0.2 μM (CaMKK2): 44% inh @ 0.2 μM
inhibition at 0.2 µM (CaMKK2): 44%
Biochemical Data CaMKK1, inh @ 0.2 μM (CaMKK1): <5% inh @ 0.2 μM

SMILES: O=C1OCCN1c1ccc2[nH]nc(-c3cc4c(Cl)cccc4[nH]3)c2c1 [Example 17, 3-(3-(4-chloro-1H-indol-2-yl)-1H-indazol-5-yl)oxazolidin-2-one]
inhibition at 0.2 µM (CaMKK2): 71%

SMILES: O=C1OCCN1c1ccc2[nH]nc(/C=C/c3ccncc3)c2c1 [Example 11, (E)-3-(3-(2-(pyridin-4-yl)vinyl)-1H-indazol-5-yl)oxazolidin-2-one]
inhibition at 0.5 µM (CaMKK2): 80%

SMILES: O=C1OCCN1c1ccc2[nH]nc(-c3ccccc3)c2c1 [Example 6, 3-(3-phenyl-1H-indazol-5-yl)oxazolidin-2-one]
Biochemical Data CaMKK2, inh @ 0.5 μM (CaMKK2): 37% inh @ 0.5 μM
inhibition at 0.5 µM (CaMKK2): 37%
Biochemical Data CaMKK1, inh @ 0.5 μM (CaMKK1): <5% inh @ 0.5 μM

SMILES: CC(C)[C@H]1COC(=O)N1c1ccc2[nH]nc(-c3cc4ccccc4[nH]3)c2c1 [Example 39, (S)-3-(3-(1H-indol-2-yl)-1H-indazol-5-yl)-4-isopropyloxazolidin-2-one]
inhibition at 0.2 µM (CaMKK2): 72%

SMILES: O=C1OCCN1c1ccc2[nH]nc(-c3cccc4ccccc34)c2c1 [CL-666]
Biochemical Data CaMKK2, inh @ 0.2 μM (CaMKK2): 15% inh @ 0.2 μM
Biochemical Data CaMKK1, inh @ 0.2 μM (CaMKK1): <5% inh @ 0.2 μM

SMILES: O=C1OCCN1c1ccc2[nH]nc(-c3ccc[nH]3)c2c1 [Example 22, 3-(3-(1H-pyrrol-2-yl)-1H-indazol-5-yl)oxazolidin-2-one]
Biochemical Data CaMKK2, inh @ 0.2 μM (CaMKK2): 37% inh @ 0.2 μM
inhibition at 0.2 µM (CaMKK2): 37%
Biochemical Data CaMKK1, inh @ 0.2 μM (CaMKK1): <5% inh @ 0.2 μM

SMILES: CN(C)CCNC(=O)c1ccc(/C=C/c2n[nH]c3ccc(N4CCOC4=O)cc23)cc1 [Example 30, (E)-N-(2-(dimethylamino)ethyl)-4-(2-(5-(2-oxooxazolidin-3-yl)-1H-indazol-3-yl)vinyl)benzamide]
inhibition at 0.2 µM (CaMKK2): 75%

SMILES: O=C1OCCN1c1ccc2[nH]nc(-c3ccc(-c4ccccc4)cc3)c2c1 [Example 27, 3-(3-([1,1′-biphenyl]-4-yl)-1H-indazol-5-yl)oxazolidin-2-one]
inhibition at 0.2 µM (CaMKK2): 59%

More lines, now with the values ahead:

Biochemical Data CaMKK2, inh @ 0.2 μM (CaMKK2): 37% inh @ 0.2 μM
inhibition at 0.2 µM (CaMKK2): 37%
Biochemical Data CaMKK1, inh @ 0.2 μM (CaMKK1): <5% inh @ 0.2 μM
SMILES: O=C1OCCCN1c1ccc2[nH]nc(-c3cc4ccccc4[nH]3)c2c1 [Example 40, 3-(3-(1H-indol-2-yl)-1H-indazol-5-yl)-1,3-oxazinan-2-one]

Biochemical Data CaMKK2, inh @ 0.2 μM (CaMKK2): 41% inh @ 0.2 μM
inhibition at 0.2 µM (CaMKK2): 41%
Biochemical Data CaMKK1, inh @ 0.2 μM (CaMKK1): <5% inh @ 0.2 μM
SMILES: O=C1OCCN1c1ccc2[nH]nc(-c3ccc(Cl)cc3)c2c1 [Example 24, 3-(3-(4-chlorophenyl)-1H-indazol-5-yl)oxazolidin-2-one]

inhibition at 0.5 µM (CaMKK2): 72%
SMILES: O=C1OCCN1c1ccc2[nH]nc(/C=C/c3cccnc3)c2c1 [Example 10, (E)-3-(3-(2-(pyridin-3-yl)vinyl)-1H-indazol-5-yl)oxazolidin-2-one]

inhibition at 0.2 µM (CaMKK2): 50%
SMILES: O=C1OC[C@@H](c2ccccc2)N1c1ccc2[nH]nc(-c3cc4ccccc4[nH]3)c2c1 [Example 38, (R)-3-(3-(1H-indol-2-yl)-1H-indazol-5-yl)-4-phenyloxazolidin-2-one]

inhibition at 10 µM (CaMKK2): 72%
SMILES: O=C1OCCN1c1ccc2[nH]nc(-c3coc4ccccc34)c2c1 [Example 1, 3-(3-(Benzofuran-3-yl)-1H-indazol-5-yl)oxazolidin-2-one]

inhibition at 0.2 µM (CaMKK2): 56%
SMILES: O=C1CCCN1c1ccc2[nH]nc(-c3cc4ccccc4[nH]3)c2c1 [Example 42, 1-(3-(1H-indol-2-yl)-1H-indazol-5-yl)pyrrolidin-2-one]

inhibition at 0.2 µM (CaMKK2): 78%
SMILES: O=C(O)[C@@H]1CCC(=O)N1c1ccc2[nH]nc(-c3cc4ccccc4[nH]3)c2c1 [Example 44, (S)-1-(3-(1H-indol-2-yl)-1H-indazol-5-yl)-5-oxopyrrolidine-2-carboxylic acid]

Biochemical Data CaMKK2, inh @ 0.5 μM (CaMKK2): 52% inh @ 0.5 μM
inhibition at 0.5 µM (CaMKK2): 52%
Biochemical Data CaMKK1, inh @ 0.5 μM (CaMKK1): 14% inh @ 0.5 μM
SMILES: O=C1OCCN1c1ccc2[nH]nc(C#Cc3ccccn3)c2c1 [Example 12, 3-(3-(pyridin-2-ylethynyl)-1H-indazol-5-yl)oxazolidin-2-one]

inhibition at 0.2 µM (CaMKK2): 61%
SMILES: COc1cccc2cc(-c3n[nH]c4ccc(N5CCOC5=O)cc34)[nH]c12 [Example 18, 3-(3-(7-methoxy-1H-indol-2-yl)-1H-indazol-5-yl)oxazolidin-2-one]

inhibition at 0.2 µM (CaMKK2): 74%
SMILES: O=C1OC[C@H](c2ccccc2)N1c1ccc2[nH]nc(-c3cc4ccccc4[nH]3)c2c1 [Example 37, (S)-3-(3-(1H-indol-2-yl)-1H-indazol-5-yl)-4-phenyloxazolidin-2-one]

Biochemical Data CaMKK2, inh @ 0.2 μM (CaMKK2): 12% inh @ 0.2 μM
inhibition at 0.2 µM (CaMKK2): 12%
Biochemical Data CaMKK1, inh @ 0.2 μM (CaMKK1): <5% inh @ 0.2 μM
SMILES: O=C1CCCCN1c1ccc2[nH]nc(-c3cc4ccccc4[nH]3)c2c1 [Example 41, 1-(3-(1H-indol-2-yl)-1H-indazol-5-yl)piperidin-2-one]

inhibition at 0.2 µM (CaMKK2): 63%
SMILES: CN(C)CCNC(=O)c1cccc(/C=C/c2n[nH]c3ccc(N4CCOC4=O)cc23)c1 [Example 29, (E)-N-(2-(dimethylamino)ethyl)-3-(2-(5-(2-oxooxazolidin-3-yl)-1H-indazol-3-yl)vinyl)benzamide]

inhibition at 0.2 µM (CaMKK2): 68%
SMILES: O=C1OC[C@H](CO)N1c1ccc2[nH]nc(-c3cc4ccccc4[nH]3)c2c1 [Example 35, (S)-3-(3-(1H-indol-2-yl)-1H-indazol-5-yl)-4-(hydroxymethyl)oxazolidin-2-one]

inhibition at 0.2 µM (CaMKK2): 85%
SMILES: O=C1OCCN1c1ccc2[nH]nc(-c3cc4ccc(Cl)cc4[nH]3)c2c1 [Example 15, 3-(3-(6-chloro-1H-indol-2-yl)-1H-indazol-5-yl)oxazolidin-2-one]

inhibition at 0.2 µM (CaMKK2): 84%
SMILES: COc1cccc2[nH]c(-c3n[nH]c4ccc(N5CCOC5=O)cc34)cc12 [Example 21, 3-(3-(4-methoxy-1H-indol-2-yl)-1H-indazol-5-yl)oxazolidin-2-one]
